We go through 21 molecules from patent US20240174662A1, “SMALL MOLECULE INHIBITORS OF SALT INDUCIBLE KINASES” (Janssen Biotech, Inc., priority 2021, published 2024).

The target of the test is SIK2 (Homo sapiens (Human), UniProt Q9H0K1). Nature of the test: SIK2 Enzymatic Assay Version 2 (High ATP). The format is biochemical. The conditions noted are these: 3 mM ATP and 200 μM HDAC5tide final, ADP-Glo Max luminescence. In outline: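 Run at room temperature; SIK2 enzyme at 6 nM (2× final) preincubated with compound 30 min before reaction. ADP formation detected by ADP-Glo Max (2 h reagent, 1 h detection) with luminescence read-out.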
Sequence of SIK2 (Q9H0K1 whole entry, species assumed): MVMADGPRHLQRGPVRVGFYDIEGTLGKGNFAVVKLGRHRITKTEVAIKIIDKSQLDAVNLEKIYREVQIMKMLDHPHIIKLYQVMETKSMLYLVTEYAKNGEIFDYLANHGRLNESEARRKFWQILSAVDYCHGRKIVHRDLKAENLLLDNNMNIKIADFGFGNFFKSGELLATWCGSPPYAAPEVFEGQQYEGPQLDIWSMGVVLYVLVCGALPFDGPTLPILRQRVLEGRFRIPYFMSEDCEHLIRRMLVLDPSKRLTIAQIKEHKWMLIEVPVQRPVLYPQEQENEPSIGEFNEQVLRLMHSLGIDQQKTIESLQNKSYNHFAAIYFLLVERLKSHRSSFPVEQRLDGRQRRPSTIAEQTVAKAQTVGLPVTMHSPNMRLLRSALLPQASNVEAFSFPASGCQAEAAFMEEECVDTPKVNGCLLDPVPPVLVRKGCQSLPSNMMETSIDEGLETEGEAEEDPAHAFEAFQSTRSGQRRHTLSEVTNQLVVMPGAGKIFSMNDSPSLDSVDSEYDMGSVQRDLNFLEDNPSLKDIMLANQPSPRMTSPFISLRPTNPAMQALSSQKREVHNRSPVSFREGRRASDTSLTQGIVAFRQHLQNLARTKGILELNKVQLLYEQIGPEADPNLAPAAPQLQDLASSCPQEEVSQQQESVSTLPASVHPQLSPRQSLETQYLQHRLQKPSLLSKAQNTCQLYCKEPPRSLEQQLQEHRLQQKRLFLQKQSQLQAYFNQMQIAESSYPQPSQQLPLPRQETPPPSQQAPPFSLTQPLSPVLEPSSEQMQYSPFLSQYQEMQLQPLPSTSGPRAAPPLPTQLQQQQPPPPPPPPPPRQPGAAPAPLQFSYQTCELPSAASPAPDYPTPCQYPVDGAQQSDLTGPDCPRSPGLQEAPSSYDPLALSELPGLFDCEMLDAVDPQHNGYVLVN
(In general: In ADP-Glo the light output rises with the ADP produced.)

“And” between values parts separate entries of the source, which are not always exact repeats. Identical values can stand only once.

Regarding `[2H]C([2H])([2H])N1CCC[C@@H]1COc1cnn(C)c1-c1ccn2nc(NC(=O)C3CC3)cc2c1` [Example 249, N-[5-[2-methyl-4-[[(2R)-1-(trideuteriomethyl)pyrrolidin-2-yl]methoxy]pyrazol-3-yl]pyrazolo[1,5-a]pyridin-2-yl]cyclopropanecarboxamide], the concentration for half-maximal inhibition (IC50) is 25.5 nM.
Regarding `Cc1onc(OC[C@@H](N)c2ccccn2)c1-c1ccn2nc(NC(=O)C3CC3)cc2c1` [Example 223, N-[5-[3-[(2S)-2-amino-2-(2-pyridyl)ethoxy]-5-methyl-isoxazol-4-yl]pyrazolo[1,5-a]pyridin-2-yl]cyclopropanecarboxamide], half-maximal inhibition (IC50) was put at 30.7 nM.
The value for `Cc1cc(Nc2cc3cc(-c4c(CO[C@@H]5CN(C)C[C@H]5C)cnn4C)ccn3n2)nc(C)n1` (relative stereo) [Example 365, Trans-*R, *S—N-(2,6-dimethylpyrimidin-4-yl)-5-[4-[(1,4-dimethylpyrrolidin-3-yl)oxymethyl]-2-methyl-pyrazol-3-yl]pyrazolo[1,5-a]pyridin-2-amine] was 1.3 nM; that for `Cn1ncc(OC[C@H]2CCN2CCOC(F)(F)F)c1-c1ccn2nc(NC(=O)C3CC3)cc2c1` [Example 431, N-[5-[2-methyl-4-[[(2R)-1-[2-(trifluoromethoxy)ethyl]azetidin-2-yl]methoxy]pyrazol-3-yl]pyrazolo[1,5-a]pyridin-2-yl]cyclopropanecarboxamide] was 181 nM.
For the molecule `Cc1cc(Nc2cc3cc(-c4c(OC[C@H]5CCN5C)cnn4C)ccn3n2)nc(C)n1` [Example 2, N-(2,6-dimethylpyrimidin-4-yl)-5-[2-methyl-4-[[(2R)-1-methylazetidin-2-yl]methoxy]pyrazol-3-yl]pyrazolo[1,5-a]pyridin-2-amine], the IC50 is under 0.847 nM.
The value for `CCN1CC[C@@H]1COc1cnn(C)c1-c1ccn2nc(Nc3cnc(C)cn3)cc2c1` [Example 21, (R)-5-(4-((1-Ethylazetidin-2-yl)methoxy)-1-methyl-1H-pyrazol-5-yl)-N-(5-methylpyrazin-2-yl)pyrazolo[1,5-a]pyridin-2-amine] was 0.9 nM; that for `CN1CC[C@@H]1COc1cnn(C)c1-c1ccn2nc(Nc3ccc(C(=O)NCC(C)(C)C#N)cn3)cc2c1` [Example 36, N-(2-cyano-2-methyl-propyl)-6-[[5-[2-methyl-4-[[(2R)-1-methylazetidin-2-yl]methoxy]pyrazol-3-yl]pyrazolo[1,5-a]pyridin-2-yl]amino]pyridine-3-carboxamide] was 10.3 nM; that for `CN1CCC[C@@H]1COc1cnn(C)c1-c1ccn2nc(Nc3ccc(C4CC4)nn3)cc2c1` [Example 284, N-(6-cyclopropylpyridazin-3-yl)-5-[2-methyl-4-[[(2R)-1-methylpyrrolidin-2-yl]methoxy]pyrazol-3-yl]pyrazolo[1,5-a]pyridin-2-amine] was 16.5 nM.
With `CN1CC2(CCOCC2)C1COc1cnn(C)c1-c1ccn2nc(NC(=O)C3CC3)cc2c1` (racemic) [Example 13, (rac)-N-[5-[2-methyl-4-[(2-methyl-7-oxa-2-azaspiro[3.5]nonan-3-yl)methoxy]pyrazol-3-yl]pyrazolo[1,5-a]pyridin-2-yl]cyclopropanecarboxamide], the IC50 was found to be 71.5 nM.
Molecule `CN1CC[C@H](Oc2cnn(C)c2-c2ccn3nc(Nc4cc5ccccn5n4)cc3c2)C1` [Example 344, 5-[2-methyl-4-[(3S)-1-methylpyrrolidin-3-yl]oxy-pyrazol-3-yl]-N-pyrazolo[1,5-a]pyridin-2-yl-pyrazolo[1,5-a]pyridin-2-amine] gave an IC50 of 56 nM. The IC50 values of the last two molecules are within 1.5-fold of each other.
In the case of `COc1nnc(Nc2cc3cc(-c4c(OC[C@H]5CCN5C)cnn4C(F)F)ccn3n2)cc1C` [Example 97, 5-[2-(difluoromethyl)-4-[[(2R)-1-methylazetidin-2-yl]methoxy]pyrazol-3-yl]-N-(6-methoxy-5-methyl-pyridazin-3-yl)pyrazolo[1,5-a]pyridin-2-amine], the half-inhibitory concentration (IC50) turned out to be 2.9 nM.
For the molecule `CN1CC[C@@H](COc2cnn(C)c2-c2ccn3nc(NC(=O)C4CC4)cc3c2)C1` [Example 396, N-[5-[2-methyl-4-[[(3R)-1-methylpyrrolidin-3-yl]methoxy]pyrazol-3-yl]pyrazolo[1,5-a]pyridin-2-yl]cyclopropanecarboxamide], the IC50 was 60.5 nM and 93.2 nM.
With `Cc1cncc(Nc2cc3cc(-c4c(CO[C@H]5CN(C)C[C@@H]5C)cnn4C)ccn3n2)n1` (stereo in doubt) [Example 374, Trans-*S, *R-5-[4-[(1,4-dimethylpyrrolidin-3-yl)oxymethyl]-2-methyl-pyrazol-3-yl]-N-(6-methylpyrazin-2-yl)pyrazolo[1,5-a]pyridin-2-amine] the figure was 17.3 nM; with `CN1CC[C@H](Oc2cnn(C)c2-c2ccn3nc(Nc4ccc(C(F)(F)F)cn4)cc3c2)C1` [Example 339, 5-[2-methyl-4-[(3S)-1-methylpyrrolidin-3-yl]oxy-pyrazol-3-yl]-N-[5-(trifluoromethyl)-2-pyridyl]pyrazolo[1,5-a]pyridin-2-amine], 68.5 nM.
`Cc1onc(OC[C@@]23C[C@@H](CO2)N(C)C3)c1-c1ccn2nc(NC(=O)C3CC3)cc2c1` [Example 203, N-[5-[5-methyl-3-[[(1S,4S)-2-methyl-5-oxa-2-azabicyclo[2.2.1]heptan-4-yl]methoxy]isoxazol-4-yl]pyrazolo[1,5-a]pyridin-2-yl]cyclopropanecarboxamide]: the IC50 is 27.4 nM.
`C[C@@H]1C[C@H](Oc2cnn(C)c2-c2ccn3nc(NC(=O)C4CC4)cc3c2)CN1C` [Example 336, N-[5-[4-[(3S,5R)-1,5-dimethylpyrrolidin-3-yl]oxy-2-methyl-pyrazol-3-yl]pyrazolo[1,5-a]pyridin-2-yl]cyclopropanecarboxamide]: the IC50 was found to be 66.4 nM. Compared with the last molecule, the IC50 is about 2.4-fold higher.
Molecule `Cn1ncc(OC[C@H]2CCN2C[C@H]2CCCO2)c1-c1ccn2nc(NC(=O)C3CC3)cc2c1` [Example 259, N-(5-(1-methyl-4-(((R)-1-(((R)-tetrahydrofuran-2-yl)methyl)azetidin-2-yl)methoxy)-1H-pyrazol-5-yl)pyrazolo[1,5-a]pyridin-2-yl)cyclopropanecarboxamide] had a half-inhibitory concentration (IC50) of 46.5 nM.
With `CCn1ncc(OC[C@@H]2CCN(C)C2)c1-c1ccn2nc(NC(=O)C3CC3)cc2c1` [Example 398, N-[5-[2-ethyl-4-[[(3R)-1-methylpyrrolidin-3-yl]methoxy]pyrazol-3-yl]pyrazolo[1,5-a]pyridin-2-yl]cyclopropanecarboxamide] the figure was 97.8 nM.
The value for `Cc1cc(Nc2cc3cc(-c4c(OC[C@H]5CCN5C)noc4C)ccn3n2)nc(C)n1` [Example 91, N-(2,6-dimethylpyrimidin-4-yl)-5-[5-methyl-3-[[(2R)-1-methylazetidin-2-yl]methoxy]isoxazol-4-yl]pyrazolo[1,5-a]pyridin-2-amine] was 6.4 nM.
For `CN1CC[C@H](Oc2cnn(C)c2-c2ccn3nc(Nc4cccnn4)cc3c2)C1` [Example 449, 5-[2-methyl-4-[(3S)-1-methylpyrrolidin-3-yl]oxy-pyrazol-3-yl]-N-pyridazin-3-yl-pyrazolo[1,5-a]pyridin-2-amine], the IC50 was found to be 89.5 nM.
Molecule `COc1cc(Nc2cc3cc(-c4c(OC[C@H]5CCN5C)cnn4C)ccn3n2)cc(OC)c1C(=O)NC(C)C` [Example 37, N-isopropyl-2,6-dimethoxy-4-[[5-[2-methyl-4-[[(2R)-1-methylazetidin-2-yl]methoxy]pyrazol-3-yl]pyrazolo[1,5-a]pyridin-2-yl]amino]benzamide] registered a 50% inhibitory concentration (IC50) of 42.9 nM. Against the preceding molecule, the IC50 is about 2.1-fold lower.

For orientation: IC50 means the point on the concentration scale where inhibition reaches its midpoint. Read a low IC50 as inhibition by little substance.
